According to PubChem BioAssay AID2305 (GlaxoSmithKline (GSK), 2010):

System: P. falciparum 3D7 growth, pLDH absorbance
Test: P. falciparum 3D7 growth inhibition, dose response, strain 3D7 (AID 2305)

Row | SMILES | IC50
1 | Cc1csc(-c2ccc3[nH]cc(C4=CCN(C)CC4)c3c2)n1 | 750 nM
2 | CCN(CC)CCN(Cc1ccc(-c2ccc(C(F)(F)F)cc2)cc1)C(=O)Cn1c(CCc2cccc(F)c2F)nc(=O)c2ccc(C(F)(F)F)cc21 | 780 nM
3 | Cc1ccc(Nc2nc(NN=Cc3ccc(-c4ccc([N+](=O)[O-])cc4)o3)nc(N3CCOCC3)n2)cc1Cl | 650 nM
4 | COc1cc2c(cc1S(=O)(=O)c1ccc(NC(=O)c3cc4ccccc4s3)cc1)CCN(C)CC2 | 840 nM
5 | CN(C)CCOc1ccc(N2CCN(CCCCNC(=O)c3ccc(NC(=O)c4ccc(Cl)cc4)cc3)CC2)cc1 | 830 nM
6 | CN1CCN(CCCN(Cc2cccc(-c3ccc(CNCc4ccc5c(c4)OCO5)cc3)c2)C(=O)Nc2ccccc2)CC1 | 680 nM
7 | Cn1nccc1C(=O)NCCNCc1ccc(-c2cccc(-c3nc4ccc(F)cc4[nH]3)c2)cc1 | 220 nM
8 | O=C(NCc1ccc(F)cc1)Nc1ccc(-c2cccc(-c3nc4ccc(F)cc4[nH]3)c2)cc1 | 1120 nM
9 | O=C(CCn1c2ccccc2c2ccccc21)NN=Cc1ccco1 | 590 nM
10 | COc1ccc(C(=O)[C@H]2C[C@@H]2CN2CC=C(c3c[nH]c4ccccc34)CC2)cc1 | 530 nM
11 | COc1ccc(-c2cnc3ccc(NC4CCC(O)CC4)nn23)cn1 (stereo not given) | 710 nM
12 | Cn1cccc1CCNCc1ccc(-c2cccc(-c3nc4ccccc4[nH]3)c2)cc1 | 1210 nM
13 | Cc1c(CC(=O)NCCC2CCN(CCCCCNC(=O)/C=C/c3ccc(Cl)c(Cl)c3)CC2)sc2ccc(Cl)cc12 | 880 nM
14 | COc1ccccc1C1CCN(C2CCC(NC(=O)/C=C/c3cccc(Cl)c3)CC2)CC1 (stereo not given) | 1030 nM
15 | COc1ccc2nccc([C@@H](O)CN3CCC(NCc4cc5cccc6c5n(c4=O)CCC6)CC3)c2c1 | 860 nM
16 | COCCNC(=O)C1CCN(C(c2ccc(Cl)cc2)c2ccc(Cl)cc2)CC1 | 550 nM
17 | Fc1ccc(-c2cc(NCCCn3ccnc3)nc(-c3cccnc3)n2)cc1 | 970 nM
18 | COc1cc(Cc2cnc(N)nc2N)cc(OCCCCc2nn[nH]n2)c1OC | 290 nM
19 | CCc1ccc(CC(C)NCC(O)c2ccccc2)cc1 (stereo not given) | 890 nM
20 | Cc1cccc2[nH]c(-c3ccc(-c4ccc(NC(=O)Nc5ccc(F)c(F)c5F)cc4)s3)nc12 | 180 nM
21 | O=C(NCCN1CCCCC1)c1cc2cc(-c3ccccc3)ccc2n1S(=O)(=O)c1ccccc1 | 1120 nM
22 | O=C(Nc1nc2cc(S(=O)(=O)NCCc3cccc(F)c3)ccc2n1CCCn1ccnc1)c1ccc(Cl)cc1 | 1270 nM
23 | CN1CCN(c2cc3c(cc2Cl)CCN3C(=O)Cc2ccc(NC(=O)Nc3cccc4ccccc34)cc2)CC1 | 970 nM
24 | O=[N+]([O-])c1cccc(C(Nc2ccccn2)c2ccc3cccnc3c2O)c1 (stereo not given) | 1330 nM

Row | SMILES | IC50
25 | CCNc1cc(C(=O)N[C@@H](Cc2ccccc2)[C@H](O)CNCc2cc(C#N)ccc2OC)cc(N2CCCC2=O)c1 | 1230 nM
26 | Cc1ccc(NC(=O)Nc2ccc(S(=O)(=O)c3ccc(NC(=O)Nc4ccc(C)c(Cl)c4)cc3)cc2)cc1Cl | 750 nM
27 | COc1ccc(Nc2ncc(OC)c(Nc3ccccc3C(N)=O)n2)cc1N1CCN(C)CC1 | 740 nM
28 | O=C(Nc1ccc(CN2CCC(c3c[nH]c4ccc(O)cc34)CC2)cc1)c1ccc(-c2ccccc2)cc1 | 250 nM
29 | CN(C)CCNC(=O)N1CCCN(c2ncnc3cc(-c4ccccc4)sc23)CC1 | 790 nM
30 | CN(CCCN(C)c1cc(NC(=O)c2ccc(F)cc2)ccn1)Cc1cccc(O)c1 | 1210 nM
31 | c1cc(CN2CCN(CCN3CCOCC3)CC2)cc(-c2ccc(-c3nc4ccccc4[nH]3)cc2)c1 | 130 nM
32 | Cc1cccc2[nH]c(-c3cccc(-c4cccc(NC(=O)c5cn(C)c(=O)n5C)c4)c3)nc12 | 500 nM
33 | CCOc1ccc(-c2nonc2NC(=O)c2cccc(Cl)c2)cc1OCC | 150 nM
34 | CC(=O)Nc1ccc(CCNC(C)Cc2ccc(C(=O)Nc3ccc(CC(C)NCCc4cccc(Cl)c4)cc3)cc2)cc1 (stereo not given) | 330 nM
35 | OCCN1CCN(C(=S)NC2CCCCC2)CC1 | 1100 nM
36 | FC(F)(F)c1ccc2nc(-c3ccc(-c4ccc(CNCC5CCCO5)cc4)s3)[nH]c2c1 (stereo not given) | 160 nM
37 | CN1CCN(c2ccnc3ccc(NC(=O)Cc4ccc(Br)c5ccccc45)cc23)CC1 | 810 nM
38 | O=C1CC(C(=O)Nc2cccc(-c3cccc(-c4nc5ccccc5[nH]4)c3)c2)c2ccccc2N1 (stereo not given) | 980 nM
39 | Cn1c(NC(=O)CCCCCNC(=O)c2ccc(O)c(-c3ccc(Cl)c(Cl)c3)c2)nc2ccccc21 | 730 nM
40 | COc1ccc(NC2=C(c3ccccc3)C(=O)c3ccccc32)cn1 | 710 nM
41 | Nc1nc(N)c2cc(NC(=O)c3ccc(Cl)c(Cl)c3)ccc2n1 | 150 nM
42 | COc1cc(C(=O)NC2CCC(CN3CCC(c4c[nH]c5ccccc45)CC3)CC2)cc(Cl)n1 (stereo not given) | 690 nM
43 | CN(C)c1ccc(OCCCCCCOc2ccccc2)cc1 | 500 nM
44 | O=C1NC(=O)C(c2cccc(NC(=O)c3ccncc3)c2)=C1c1ccccc1 | 740 nM
45 | Cc1ccc(S(=O)(=O)Nc2ccc(Nc3nccc(Nc4cccc5[nH]ncc45)n3)cc2)cc1 | 960 nM
46 | COc1ccc2nccc([C@@H](O)CN3CCC(NCc4cc5ccccc5[nH]4)CC3)c2n1 | 630 nM
47 | CCCCCCCCNCC(O)c1cc(-c2ccc(Cl)cc2)nc2cc(C)ccc12 (stereo not given) | 80 nM
48 | O=C(N[C@@H](CC1CCCCC1)C(=O)NCCN1CCCCC1)c1ccc(O)c(-c2ccc(Cl)c(Cl)c2)c1 | 150 nM

Row | SMILES | IC50
49 | CC[C@H]1CN2CCc3cc(OC)c(OC)cc3[C@@H]2C[C@@H]1C[C@H]1NCCc2c1cc(OC)c(OC)c2Br | 650 nM
50 | O=c1cc(NCCCNCc2ccc(Cl)c(Cl)c2)[nH]c2ccc(C(F)(F)F)cc12 | 520 nM
51 | CCn1c(-c2nonc2N)nc2cnc(Oc3cccc(NC(=O)c4ccc(OCCN5CCCCC5)cc4)c3)cc21 | 1060 nM
52 | CN1CCCN(Cc2cccc(-c3cccc(NS(=O)(=O)c4cccc5cccnc45)c3)c2)CC1 | 760 nM
53 | Cc1ccnc2nc(C(=O)Nc3cc(Cl)ccc3N3CCOCC3)nn12 | 1240 nM
54 | COc1cc(NC(=O)/C=C/c2cc(F)cc(F)c2F)cc(OCCN2CCN(CCN3CCOCC3)CC2)c1 | 770 nM
55 | Cn1cncc1CCN(Cc1ccc(-c2ccc(C(F)(F)F)cc2)cc1)C(=O)Cn1c(SCc2cccc(F)c2F)cc(=O)c2ccccc21 | 990 nM
56 | Cc1c(C)n(C2CCCC2)c2ncnc(OC3CCN(CC(=O)NC4CC4)CC3)c12 | 790 nM
57 | CN(CCO)Cc1ccc(-c2ccc(NS(=O)(=O)c3cccc4cccnc34)cc2)cc1 | 790 nM
58 | CCCNCc1ccc(-c2ccc(CN(CCOC)C(=O)Cc3cccnc3)cc2)nc1 | 820 nM
59 | O=C(NCCCCN1CCC(c2c[nH]c3ccccc23)CC1)c1sc(-c2ccc(C(F)(F)F)cc2)nc1CO | 1200 nM
60 | Cc1ccc(NC(=O)c2cccc(C#N)c2)cc1-c1ccc(C(=O)Nc2ccncc2)cc1 | 690 nM
61 | O=C(/C=C/c1ccc(Cl)c(Cl)c1)NCCCCN1CCCN(C(=O)Nc2ccc(C(F)(F)F)cc2)CC1 | 850 nM
62 | O=C(c1cc(-c2ccccc2)n[nH]1)N1CCN(S(=O)(=O)c2ccc(Cl)s2)CC1 | 930 nM
63 | COc1ccc2nccc([C@@H](O)CN3CCC(NC(=O)C(=Cc4ccc(C#N)cc4)c4ccc(-c5ccccc5)cc4)CC3)c2c1 | 740 nM
64 | CN1CCC(C(=O)N(Cc2ccc(-c3ccc(CNCCc4ccc(S(C)(=O)=O)cc4)cn3)cc2)Cc2cccc(F)c2)CC1 | 710 nM
65 | CN(C)CCC1CCCc2ccc(NC(=O)Nc3cccc(Cl)c3Cl)cc21 (stereo not given) | 960 nM
66 | O=C(/C=C/c1ccc(Cl)c(Cl)c1)NCCCCCN1CCC(CCNC(=O)C2(c3ccc(Cl)cc3)CC2)CC1 | 920 nM
67 | O=C(CSc1nc(-c2ccccc2Cl)ns1)Nc1cccc(Cl)c1 | 790 nM
68 | COc1cc(NC(=O)/C=C/c2ccccc2Cl)cc(OCCN2CCC(O)(c3ccccc3)CC2)c1 | 170 nM
69 | O=S(=O)(Nc1cc2c(cc1OCc1ccccc1)CCN(C1CCC1)CC2)c1ccc(-c2ccc(Cl)cc2)cc1 | 1140 nM
70 | Cc1noc(C)c1CN1Cc2ccccc2OC2(CCN(Cc3c[nH]c4cnccc34)CC2)C1 | 1070 nM
71 | Cc1ccc(C(CC(=O)Nc2nccs2)c2ccc(OC(C)C)cc2)cc1 (stereo not given) | 480 nM
72 | Cc1ccc(Nc2nc(C)cc(Nc3cccc(C#N)c3)n2)cc1 | 980 nM

Row | SMILES | IC50
73 | CCCc1cc(Cc2cnc(N)nc2N)cc2c1OC(C)(C)C2 | 1080 nM
74 | Cc1ccccc1CN1CCCN(Cc2ccc(C(=O)Nc3ccc(C(C)(C)C)cc3)cc2)CC1 | 860 nM
75 | Cc1cnc(C(=O)Nc2ccc(-c3cccc(-c4nc5ccccc5[nH]4)c3)cc2)cn1 | 830 nM
76 | COc1ccc2ncc(F)c(CCN3C[C@H](CNCc4ccccc4)[C@H](O)C3)c2n1 | 910 nM
77 | O=C(Nc1cc(C(F)(F)F)cc(C(F)(F)F)c1)c1cc(C(F)(F)F)cc(C(F)(F)F)c1 | 870 nM
78 | CC(C)CN1CCCN(Cc2cccc(NC(=O)c3cc4ccccc4s3)c2)CC1 | 1770 nM
79 | NS(=O)(=O)c1cccc(-c2ccc3c(=O)[nH]cnc3c2)c1 | 950 nM
80 | CC1CN=C(c2cccc(NC(=O)Nc3cccc(C4=NCC(C)N4)c3)c2)N1 (stereo not given) | 360 nM
81 | Cc1ccc(Cc2cnc(CN3CCCCC3)c(O)c2)cc1 | 890 nM
82 | c1ccc2[nH]c(-c3ccc(-c4ccc(CN5CCN(c6ccncc6)CC5)cc4)s3)nc2c1 | 200 nM
83 | COc1ccccc1C1CCN(C2CCC(NC(=O)/C=C/c3cc(C(F)(F)F)ccc3F)CC2)CC1 (stereo not given) | 870 nM
84 | Cc1cc(NN=Cc2ccccc2[N+](=O)[O-])c2ccccc2n1 | 780 nM
85 | COc1ccc(N2CCN(CCCCNC(=O)c3ccc(NC(=O)c4cc(C(F)(F)F)cc(C(F)(F)F)c4)cc3)CC2)c(OC)c1 | 150 nM
86 | COc1ccc(CCNc2ccnc3cc(Cl)ccc23)cc1OC | 890 nM
87 | Cc1ccccc1C(=O)NC(NC(=S)Nc1ccc([N+](=O)[O-])cc1)C(Cl)(Cl)Cl (stereo not given) | 740 nM
88 | CC(=O)Nc1ccc(C(=O)Nc2ccc(-c3cccc(-c4nc5ccccc5[nH]4)c3)cc2)cn1 | 240 nM
89 | COc1ccc2nccc([C@@H](O)CN3CCC(NC(=O)c4cc5c(F)cc(F)cc5[nH]4)CC3)c2n1 | 1390 nM
90 | O=C(Cc1ccccc1)NC(Nc1ccc([N+](=O)[O-])cc1)C(Cl)(Cl)Cl (stereo not given) | 970 nM
91 | O=C(CSc1nc(-c2ccccc2Cl)ns1)Nc1ccc2c(c1)OCO2 | 990 nM
92 | COc1ccc(-c2ccc(S(=O)(=O)Nc3cc4c(cc3OC(C)C)CCN(C)CC4)cc2)cc1 | 690 nM
93 | Cc1[nH]c2ccccc2c1C(=O)C(C)Sc1n[nH]c(-c2ccccc2Br)n1 (stereo not given) | 30 nM
94 | CC(C)(C)c1ccc(CNC(=O)c2cc(CNC3CCC(N)CC3)ccc2O)cc1 (stereo not given) | 1030 nM
95 | Cc1cc(NN=Cc2cccc([N+](=O)[O-])c2)c2cc(F)ccc2n1 | 590 nM
